Source: US6946482B2, “Motilide compounds” (Kosan Biosciences, Inc., priority 2002, dated 2005)
In brackets after ≈: the same amount, converted by molar mass. Where two headings read alike, the source gives them in different places.

Assays:
[1] = system: gut contraction; conditions: conscious dogs, dose 1 mg/kg; cited from earlier work
[2] = biological target: T1, motilin receptor (Homo sapiens, UniProt O43193); test: Motilin receptor activation, calcium-influx assay; assay type: cell-based
T1 construct: expressed in transfected cells
Text: The compounds of formula (I) are agonists of the motilin receptor.

[3] = system: Streptococcus pneumoniae ATCC 6301; test: In vitro susceptibility test (MIC); assay type: cell-based; conditions: ATCC6301
Experimental: Antibacterial activity (Table 2) was determined by in vitro susceptibility tests against Streptococcus pneumoniae ATCC 6301, a macrolide-sensitive strain, using methods known in the microbiological art.

[4] = biological target: T1, motilin receptor; conditions: cell-based and muscle strip contractility assays; cited from earlier work
[5] = biological target: T1, motilin receptor; conditions: cited from earlier work
[6] = biological target: T1, motilin receptor; test: Motilin receptor desensitization, cell-based assay
Experimental: Compounds were tested for motilin receptor desensitization using the cell-based assay described in Carreras et al., US 2002/0192709 A1 (2002), “Methods for Evaluating Therapeutic Efficacy,” the disclosure of which is incorporated herein by reference.

[7] = Streptococcus pneumoniae ATCC 6301, macrolide-sensitive strain, read-out: MIC

T1 sequence (O43193 whole entry): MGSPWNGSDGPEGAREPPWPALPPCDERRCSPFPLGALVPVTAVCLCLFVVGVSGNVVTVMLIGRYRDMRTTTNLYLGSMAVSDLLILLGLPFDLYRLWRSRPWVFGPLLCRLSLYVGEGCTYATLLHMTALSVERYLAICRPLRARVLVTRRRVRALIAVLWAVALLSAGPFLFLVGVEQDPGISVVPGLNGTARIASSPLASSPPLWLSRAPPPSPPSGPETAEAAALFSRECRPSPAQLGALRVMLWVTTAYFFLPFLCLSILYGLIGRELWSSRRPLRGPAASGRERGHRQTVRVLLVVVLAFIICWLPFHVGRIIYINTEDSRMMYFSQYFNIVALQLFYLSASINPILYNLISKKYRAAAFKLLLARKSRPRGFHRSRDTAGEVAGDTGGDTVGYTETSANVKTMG

SMILES	EC50 [2] [nM]	MIC [3, 7] [µg/mL]	further results
CCC1OC(=O)C(C)C(OC2CC(C)(OC)C(O)C(C)O2)C(C)C(OC2OC(C)CC(N(C)C)C2O)C(C)(O)CC(C)C(O)C(C)C(O)C1(C)O [A, (9S)-9-dihydroerythromycin A, reference compound]	2500	0.3 (≈ 0.408 µM)	Activity relative to erythromycin, stimulation of gut contraction [1]: 65%
CC[C@H]1OC(=O)[C@H](C)[C@@H](OC2C[C@@](C)(OC)C[C@H](C)O2)[C@H](C)[C@@H](OC2O[C@H](C)C[C@H](N(C)C(C)C)[C@H]2O)[C@@]2(C)CC(C)=C(O2)[C@H](C)C(=O)[C@]1(C)OC (some centres unmarked) [Compound 7]	–	–	Motilin receptor desensitization (in words) [4]: show motilin receptor desensitization
CCC1OC(=O)C(C)C(OC2CC(C)(OC)C(O)C(C)O2)C(C)C(OC2OC(C)CC(N(C)C)C2O)C(C)(O)CC(C)C(=O)C(C)C(O)C1(C)O (centres unmarked) [Erythromycin A, reference compound]	–	–	Motilin agonist activity (in words) [5]: motilin agonist activity; MIC ([3]; Streptococcus pneumoniae): 0.03 µg/mL (≈ 0.0409 µM)
CCCC1OC(=O)C(C)C(OC2CC(C)(OC)C(O)C(C)O2)C(C)C(OC2OC(C)CC(N(C)C)C2O)C(C)(O)CC(C)C(O)C(C)C(O)C1(C)O [F, (9S)-9-dihydro-15-methylerythromycin A]	8600	1 (≈ 1.33 µM)	Activity following exposure to compound (% of original activity retained) ([6]; 1 μM compound): 100%; Activity following exposure to compound (% of original activity retained) ([6]; 10 μM compound): 100%

More lines, in order of falling EC50 [2], values ahead:

EC50 [2] [nM]	MIC [3, 7] [µg/mL]	SMILES	further results
5000	–	COC1(C)CC(OC2C(C)C(=O)OC(CCF)C(C)(O)C(O)C(C)C(O)C(C)CC(C)(O)C(OC3OC(C)CC(N(C)C)C3O)C2C)OC(C)C1O [C, (9S)-9-dihydro-15-fluoroerythromycin A]	–
3300	–	CCCC1OC(=O)C(C)C(OC2CC(C)(OC)C(O)C(C)O2)C(C)C(OC2OC(C)CC(N(C)C(C)CC)C2O)C(C)(O)CC(C)C(O)C(C)C(O)C1(C)O [H, N-desmethyl-N-(2-butyl) (9S)-9-dihydro-15-methylerythromycin A]	–
2000	–	CCN(C)C1CC(C)OC(OC2C(C)C(OC3CC(C)(OC)C(O)C(C)O3)C(C)C(=O)OC(CCF)C(C)(O)C(O)C(C)C(O)C(C)CC2(C)O)C1O [D, N-desmethyl-N-ethyl(9S)-9-dihydro-15-fluoroerythromycin A]	–
1400	> 100	CCCC1OC(=O)C(C)C(OC2CC(C)(OC)C(O)C(C)O2)C(C)C(OC2OC(C)CC(N(C)C(C)C)C2O)C(C)(O)CC(C)C(O)C(C)C(O)C1(C)O [G, N-desmethyl-N-isopropyl-15-methyl-(9S)-9-dihydroerythromycin A]	Activity following exposure to compound (% of original activity retained) ([6]; 1 μM compound): 100%; Activity following exposure to compound (% of original activity retained) ([6]; 10 μM compound): 100%
520	–	COC1(C)CC(OC2C(C)C(=O)OC(CCF)C(C)(O)C(O)C(C)C(O)C(C)CC(C)(O)C(OC3OC(C)CC(N(C)C(C)C)C3O)C2C)OC(C)C1O [E, N-desmethyl-N-isopropyl(9S)-9-dihydro-15-fluoroerythromycin A]	–
490	–	CCC1OC(=O)C(C)C(OC2CC(C)(OC)C(O)C(C)O2)C(C)C(OC2OC(C)CC(N(C)C(C)C)C2O)C(C)(O)CC(C)C(O)C(C)C(O)C1(C)O (centres unmarked) [B]	–
160	> 100	CCC1OC(=O)C(C)C(OC2CC(C)(OC)C(O)C(C)O2)C(C)C(OC2OC(C)CC(N(C)C(C)C)C2O)C(C)(O)CC(C)C(O)C(C)CC1C [J, N-desmethyl-N-isopropyl-11-deoxy-(9S)-9-dihydroerythromycin B]	Activity following exposure to compound (% of original activity retained) ([6]; 1 μM compound): 88%; Activity following exposure to compound (% of original activity retained) ([6]; 10 μM compound): 88%
